According to patent US20200032347A1, “RNA profiling for individualized diet and treatment advice” (Stichting Katholieke Universiteit, priority 2017, published 2020):

Key:
SKRC-17 cells = assay: Cell proliferation assay (SRB, cellular protein content); assay type: cell-based, human; conditions: proliferation assays
Experimental: (§1) Cellular protein content was determined as a measure of cell proliferation, using suforhodamine B (SRB) assays as described in (83). Sensitivity to EGCG was determined by adding a concentration range of EGCG (0-50 μM) or DMSO solvent one day after seeding 1,000 cells per well in 96-wells plates (Nunc, Roskilde, Denmark). An SRB assay was performed after 3 days, and IC50 values were determined in GraphPad Prism using the sigmoidal dose response with variable slope nonlinear regression analysis.
(§2) Furthermore cell proliferation over 8 days in presence or absence of EGCG was determined. Cells were seeded at 1,000 cells per well and at day 1 and day 5 after seeding the medium was changed for medium with or without 10 μM EGCG. Controls were incubated with DMSO. Protein content was determined every 2 days. Experiments were performed in triplicate and statistical significance was determined using one-way ANOVA with bonferroni correction.

SKRC-7 cells = assay: as above; assay type: cell-based, human; conditions: proliferation assays
Experimental: as §1, §2

NC(=O)c1ccc(N)nc1 [Compound 6-AN, 6-aminonicotinamide]
cell proliferation response (SKRC-17 cells): significantly decreased cell proliferation | cell proliferation response (SKRC-7 cells): increase of cell proliferation
